In patent US20060110790A1, “Expression system for large functional proteins” (priority 2002, published 2006):

Target: T1, individually expressed N half of ABCR containing 1D4 epitope tag (N*) (Homo sapiens, UniProt P78363)
T1 construct: The cDNAs coding for the N-half (amino acids 1-1325) and C-half (amino acids 1326-2273) of ABCR; made in house; host or cells: COS-1 cells
T1 sequence (P78363 1-1325): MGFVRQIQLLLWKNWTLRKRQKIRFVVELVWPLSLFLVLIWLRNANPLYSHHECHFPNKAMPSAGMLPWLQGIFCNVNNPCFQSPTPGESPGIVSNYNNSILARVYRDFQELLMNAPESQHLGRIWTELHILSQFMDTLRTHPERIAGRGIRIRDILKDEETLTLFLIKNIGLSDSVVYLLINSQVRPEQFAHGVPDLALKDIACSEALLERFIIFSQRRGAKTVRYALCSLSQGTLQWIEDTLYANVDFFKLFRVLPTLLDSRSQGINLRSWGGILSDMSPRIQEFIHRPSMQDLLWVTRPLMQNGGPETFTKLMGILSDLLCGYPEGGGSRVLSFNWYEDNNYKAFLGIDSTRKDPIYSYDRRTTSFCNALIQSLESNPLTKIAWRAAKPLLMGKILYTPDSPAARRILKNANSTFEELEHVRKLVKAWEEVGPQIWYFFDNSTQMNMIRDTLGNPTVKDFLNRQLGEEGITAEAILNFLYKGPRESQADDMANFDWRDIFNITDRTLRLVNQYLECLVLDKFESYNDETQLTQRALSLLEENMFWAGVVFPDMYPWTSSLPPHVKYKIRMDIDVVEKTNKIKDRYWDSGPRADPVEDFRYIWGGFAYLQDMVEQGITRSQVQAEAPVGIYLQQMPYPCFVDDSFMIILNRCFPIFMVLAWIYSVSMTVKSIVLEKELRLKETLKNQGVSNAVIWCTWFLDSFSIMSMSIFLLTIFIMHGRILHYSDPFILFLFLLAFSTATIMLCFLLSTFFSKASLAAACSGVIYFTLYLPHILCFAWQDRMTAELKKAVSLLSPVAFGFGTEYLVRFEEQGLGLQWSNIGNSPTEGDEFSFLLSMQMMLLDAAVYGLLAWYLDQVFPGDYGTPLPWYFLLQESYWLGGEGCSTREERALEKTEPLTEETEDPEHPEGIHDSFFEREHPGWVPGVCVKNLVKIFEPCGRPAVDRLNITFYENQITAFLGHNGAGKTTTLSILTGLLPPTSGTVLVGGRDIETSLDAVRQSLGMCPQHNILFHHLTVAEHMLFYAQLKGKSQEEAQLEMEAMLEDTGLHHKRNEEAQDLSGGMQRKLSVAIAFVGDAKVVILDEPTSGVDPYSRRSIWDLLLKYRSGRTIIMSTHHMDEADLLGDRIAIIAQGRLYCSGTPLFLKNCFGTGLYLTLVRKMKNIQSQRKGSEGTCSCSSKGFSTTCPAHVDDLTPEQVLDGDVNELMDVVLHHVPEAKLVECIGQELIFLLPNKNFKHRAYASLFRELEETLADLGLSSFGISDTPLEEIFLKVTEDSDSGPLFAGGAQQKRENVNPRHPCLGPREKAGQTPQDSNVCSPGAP
Experiment: Retinal-stimulated ATPase activity of purified protein reconstituted in lipid vesicles
Assay type: biochemical
Conditions: individually expressed in COS-1 cells, 1D4-tagged, 50 μM [α32P]ATP
Protocol: Membranes (from two 10 cm dishes) were solubilized in 0.5 ml of 1% Triton-X100 in Buffer A (140 mM NaCl, 20 mM Tris-HCl, pH 7.4) for 20 min on ice. For ATPase assays, the membrane preparation step was omitted and the cell suspension was solubilized directly in Buffer B (10 mg/ml soybean phospholipids, 10% glycerol, 1 mM dithiothreitol, 100 mM NaCl, 3 mM MgCl2, 50 mM NaHEPES, pH 7.4) containing 18 mM CHAPS. The supernatant after a 10 min centrifugation at 40,000 rpm (TLA100.4 rotor) was mixed with 50 μl Rim3F4 Sepharose 2B for 1 h at 4° C. The beads were washed 6 times in Buffer A containing 0.2% Triton X-100 or Buffer B containing 10 mM CHAPS and eluted with 4% SDS (for electrophoresis) or 0.2 mg/ml Rim3F4 peptide (for reconstitution and determination of ATPase activity). Purified protein (24 μl) was incubated with 6 μl of 50 mg/ml lipid (1:1 mixture of dioleoylphosphatidylethanolamine and brain polar lipid, by weight) and 3 μl n-octylglucoside for 30 min on ice. The mixture was diluted rapidly with 200 μl of Buffer C (1 mM dithiothreitol, 140 mM NaCl, 25 mM NaHEPES, pH 7.4) and passed through a 200 μl Extracti-gel column (Pierce). The flow-through containing the reconstituted protein was used for determination of ATPase activity.
ATPase activity was measured as described previously (Ahn, J., Wong, J. T., and Molday, R. S. (2000) J Biol Chem 275(27), 20399-405) using 50 μM [α^32P]ATP and thin layer chromatography. The all-trans retinal concentration was determined spectrophotometrically (λ383 nm=42.88 mM^−1 cm^−1). Protein concentration was estimated from the eluate before reconstitution by laser densitometry of Coomassie blue stained gels using bovine serum albumin as a standard. […] Direct protein measurements after reconstitution by densitometry of Western blots was about half of that in the eluate. […]
ATPase Activity of Expressed N and C Halves—The basal and retinal activated ATPase activity of full-length ABCR and the N and C halves individually or co-expressed in COS-1 cells was determined after immunoaffinity purification and reconstitution into lipid vesicles. […]

CC1=C(/C=C/C(C)=C/C=C/C(C)=C/C=O)C(C)(C)CCC1 [all-trans retinal]
stimulation of ATPase activity: not stimulated
